# “Also recorded” adds a separate entry of the source.
# Tested on: virus
# Assay: Virus inactivation by detergent component versus nanoemulsion
# Assay type: cell-based
# Settings: at concentrations equivalent to 11% X8P (BCTP)
# Text: The nanoemulsions structure of the certain embodiments of the emulsions of the present invention may play a role in their biocidal activity as well as contributing to the non-toxicity of these emulsions. […] Adding the oil phase to the detergent and solvent markedly reduces the toxicity of these agents in tissue culture at the same concentrations. […] It should be noted that when all the components of X8P are combined in one composition but are not in a nanoemulsion structure, the mixture is not as effective as an antimicrobial as when the components are in a nanoemulsion structure.
# Individual components of nanoemulsions (e.g. in an immunogenic composition of the present invention) can function both to inactivate a pathogen as well as to contribute to the non-toxicity of the emulsions. […] Adding the oil phase to the detergent and solvent markedly reduces the toxicity of these agents in tissue culture at the same concentrations. […] Furthermore, when all the components of BCTP are combined in one composition but are not in a nanoemulsion structure, the mixture is not as effective at inactivating a pathogen as when the components are in a nanoemulsion structure.
substance,measurement,value
TRITON X-100 [TRITON-X100],biocidal activity against virus (ability to inactivate a virus),less biocidal activity; also recorded: less ability to inactivate a virus

# Reference: patent US20100316673A1, “NA[…]” (priority 2009, published 2010)
